{"source": "patent US12441732B2", "about": "“Potassium salt crystal form B of phosphodiesterase type 5 inhibitor, and preparation method and use therefor” (Guangzhou Huazhen Pharmaceutical Co., Ltd, priority 2019, dated 2025)", "key": {"[1]": {"experiment": "Solid-state stability test (one week, open)", "assay_type": "physicochemical", "settings": "for HPLC purity: Purity after placement / Purity after placement/Starting purity / Crystal form change: open, one week; for Crystal form change: XRPD", "description": "The solid-state stability of the potassium salt crystal form B prepared in Embodiment 1 was tested, in which 5.22 mg of potassium salt crystal form B samples were weighed and left open at 25° C./60% RH, and 5.19 mg of potassium salt crystal form B samples were weighed and left open at 40° C./75% RH. After one week, all samples were subjected to XRPD characterization (see XRPD parameter settings in Table 1) and HPLC purity test (Agilent 1100) to detect changes in crystal form and purity, wherein HPLC purity test parameters were shown in Table 6. Meanwhile, 4.59 mg of a compound WYQ sample was weighed and left open at 25° C./60% RH, and 5.11 mg of the compound WYQ sample was weighed and left open at 40° C./75% RH. The solid-state stability of these samples were performed under the same conditions for comparative reference."}, "PAH rats": {"tested_on": "PAH rats", "experiment": "Monocrotaline-induced pulmonary arterial hypertension (PAH) rats: RVSP, RVMI, pulmonary arterioles", "assay_type": "in vivo, SD rats", "settings": "for RVMI, RV/(LV+S) / RVSP: 3 weeks after MCT", "source_text": "SD rats were randomly divided into 8 groups, 15 rats/group: a normal control group (Vehicle); a PAH model group (MCT); a PAH+potassium salt crystal form B of WYQ mini-dose group (hereafter referring to as a mini-dose group); a PAH+potassium salt crystal form B of WYQ low-dose group (hereafter referring to as a low-dose group); a PAH+potassium salt crystal form B of WYQ medium-dose group (hereafter referring to as a medium-dose group); a PAH+potassium salt crystal form B of WYQ high-dose group (hereafter referring to as a high-dose group); a PAH+Sildenafil control group (hereafter referring to as a Sildenafil group); a PAH+Tadalafil control group (hereafter referring to as a Tadalafil group).\nMCT was fully dissolved with 1M dilute HCl, diluted with double-distilled water, and adjusted to pH=7.2 with 3M NaOH, thereby preparing a MCT solution with a final concentration of 20 mg/ml.\nThe normal control group was injected subperitoneally with normal saline (50 mg/kg), and the rest of the groups were injected subperitoneally with MCT (50 mg/kg) at one time.\nMini-dose group: the potassium salt crystal form B of WYQ was prepared into a 0.4 mg/ml medicinal solution (ready to use) with normal saline, and administered by gavage at the dose of 2 mg·kg^−1d^−1;\nLow-dose group: the potassium salt crystal form B of WYQ was prepared into a 1 mg/ml medicinal solution (ready to use) with normal saline, and administered by gavage at the dose of 5 mg·kg^−1d^−1;\nMedium-dose group: the potassium salt crystal form B of WYQ was prepared into a 2 mg/ml medicinal solution (ready to use) with normal saline, and administered by gavage at the dose of 10 mg·kg^−1d^−1;\nHigh-dose group: the potassium salt crystal form B of WYQ was prepared into a 4 mg/ml medicinal solution (ready to use) with normal saline, and administered by gavage at the dose of 20 mg·kg^−1d^−1;\nSildenafil group: Sildenafil was prepared into a 5 mg/ml medicinal solution (ready to use) with 0.5% sodium carboxymethyl cellulose, and administered by gavage at the dose of 25 mg·kg^−1d^−1;\nTadalafil group: Tadalafil was prepared into a 2 mg/ml medicinal solution (ready to use) with 0.5% sodium carboxymethyl cellulose, and administered by gavage at the dose of 10 mg·kg^−1d^−1.\nThe day of injection was the starting date of the experiment, and the administration was started after 7 days of modeling, once a day for 14 consecutive days.\nAfter 3 weeks from the starting date of the experiment, RVSP data were collected on RM-6240E polygraph for each group of rats.\nAfter 3 weeks from the starting date of the experiment, the animals were anesthetized, hemodynamically tested (RM-6240E polygraph), and sacrificed after manometry. The cardiopulmonary tissues were immediately dissected, and the right and left atria and great vessels were cut off along the atrioventricular junction with ophthalmic scissors to separate the right ventricle (RV) and left ventricular wall plus septum (LV+S), which was absorbed water with filter paper and weighed respectively, and RV/(LV+S), i.e., RVMI was calculated.\nAfter 3 weeks from the starting date of the experiment, rats were heparinized with heparin (50 IU/100 g, intraperitoneal injection) for 5 min. The animals were anesthetized by injection of 20% urethane solution (0.5 ml/100 g), and the blood pressure indexes were detected and recorded.\nThe heart was dissected, the right ventricular wall was separated, and the left ventricle and the septum were separated, which were absorbed water with filter paper and weighed respectively to calculate the right ventricular hypertrophy index.\nThe lungs were dissected, wherein the right lung was ligated, and the left lung lobe was perfused with a fixative (4% paraformaldehyde) and then fixed in the fixative, dehydrated by ethanol gradient, allowed to become transparent by using xylene, immersed in wax, embedded in paraffin, sectioned (4 μm), stained with hematoxylin-eosin (HE), sealed with neutral gum and then observed under a microscope. […]"}, "[2]": {"settings": "both test conditions (25° C./60% RH, 40° C./75% RH)"}, "[3]": {"settings": "high-dose 20 mg·kg^−1d^−1 gavage once a day for 14 days"}, "[4]": {"settings": "low-, medium- and high-dose groups (5, 10, 20 mg·kg^−1d^−1)"}, "[5]": {"settings": "low-dose 5 mg·kg^−1d^−1 gavage once a day for 14 days"}, "[6]": {"settings": "medium-dose 10 mg·kg^−1d^−1 gavage once a day for 14 days"}, "[7]": {"settings": "mini-dose 2 mg·kg^−1d^−1 gavage once a day for 14 days"}}}
{"smiles": "CCCCOC(=O)[N-]S(=O)(=O)c1cccc(-c2nc3c(CCC)nn(C)c3c(=O)[nH]2)c1.[K+]", "note": "[potassium salt crystal form B]", "values": [{"measurement": "HPLC purity: Purity after placement", "setting": "[1]; 25° C./60% RH", "result": 98.62, "unit": "area %"}, {"measurement": "Purity after placement/Starting purity", "setting": "[1]; 25° C./60% RH", "result": 99.9, "unit": "%"}, {"measurement": "Crystal form change", "setting": "[1]; 25° C./60% RH", "result": "unchanged"}, {"measurement": "HPLC purity: Purity after placement", "setting": "[1]; 40° C./75% RH", "result": 98.51, "unit": "area %"}, {"measurement": "Purity after placement/Starting purity", "setting": "[1]; 40° C./75% RH", "result": 99.8, "unit": "%"}, {"measurement": "Crystal form change", "setting": "[1]; 40° C./75% RH", "result": "unchanged"}, {"measurement": "change in purity after one week of placement", "setting": "[1]; [2]", "result": "no significant change"}, {"measurement": "change in the crystal form after one week of placement", "setting": "[1]; [2]", "result": "no change"}, {"measurement": "RVMI, RV/(LV+S)", "setting": "PAH rats; [3]", "result": "34.6±19", "unit": "%"}, {"measurement": "RVSP", "setting": "PAH rats; [3]", "result": "29.8±1.6", "unit": "mmHg"}, {"measurement": "WT % of pulmonary arterioles vs PAH model group", "setting": "PAH rats; [4]", "result": "decreased and improved significantly"}, {"measurement": "tunica media thickness of pulmonary arterioles vs PAH model group", "setting": "PAH rats; [4]", "result": "decreased and improved significantly"}, {"measurement": "RVMI, RV/(LV+S)", "setting": "PAH rats; [5]", "result": "40.6±2.7", "unit": "%"}, {"measurement": "RVSP", "setting": "PAH rats; [5]", "result": "47.6±1.9", "unit": "mmHg"}, {"measurement": "RVMI, RV/(LV+S)", "setting": "PAH rats; [6]", "result": "38.7±2.1", "unit": "%"}, {"measurement": "RVSP", "setting": "PAH rats; [6]", "result": "40.7±1.5", "unit": "mmHg"}, {"measurement": "RVMI, RV/(LV+S)", "setting": "PAH rats; [7]", "result": "42.8±2.1", "unit": "%"}, {"measurement": "RVSP", "setting": "PAH rats; [7]", "result": "56.2±0.5", "unit": "mmHg"}]}
